According to patent US20240360289A1, “EPOXY RESIN FOAM, CARBON DIOXIDE ABSORBENT, METHOD FOR PRODUCING EPOXY RESIN FOAM, MULTILAYER STRUCTURE AND METHOD FOR PRODUCING SAME” (MITSUBISHI GAS CHEMICAL COMPANY, INC., priority 2021, published 2024):

Assay: Maximum carbon dioxide release temperature of amine compound (DSC after CO2 absorption)
Format: physicochemical
Conditions: amine compound after 24 hours in air at 23° C. and 50% RH; DSC 23 to 250° C., 10° C./minute, nitrogen
Description: (Maximum Carbon Dioxide (CO2) Release Temperature of Amine Compound)
A carbon dioxide detector and a Petri dish were placed in an openable desiccator (inner dimension: 370 mm×260 mm×272 mm). Subsequently the amine compound (5 mmol) was added to the Petri dish in the desiccator and the door was immediately closed to leave the amine compound to stand in the desiccator in an air environment at 23° C. and 50% RH for 24 hours. The initial concentration of carbon dioxide was adjusted to about 400 ppm.
Then the amine compound was removed from the desiccator to give an amine compound with carbon dioxide absorbed. The maximum carbon dioxide release temperature of the amine compound with carbon dioxide absorbed was measured by subjecting the amine compound to DSC as described below. First, differential scanning calorimetry of the amine compound was performed under conditions of a temperature range of 23 to 250° C., a heating rate of 10° C./minute and a nitrogen atmosphere using a differential thermogravimeter (product name DTG-60 made by Shimadzu Corporation). The temperature at which the amount of heat absorbed due to the desorption of carbon dioxide was the maximum was calculated from the DSC curve obtained, and the temperature was determined as the maximum carbon dioxide release temperature of the amine compound.

Structure (SMILES)	Maximum carbon dioxide release temperature [°C]
CC1(C)CC(N)CC(C)(CN)C1 (centres unmarked) [IPDA, isophoronediamine]	114.4
NCc1cccc(CN)c1 [MXDA, metaxylylenediamine]	135.5
NC1CCC(CC2CCC(N)CC2)CC1 (centres unmarked) [PACM, 4,4′-methylenebis(cyclohexylamine), reference compound]	53

The next lines start with the values.

Maximum carbon dioxide release temperature [°C]	Structure (SMILES)
125.7	NCC1CCCC(CN)C1 (centres unmarked) [1,3-BAC, 1,3-bis(aminomethyl)cyclohexane]
81.9	NCCN1CCNCC1 [AEP, N-(2-aminoethyl) piperazine]
